Reference: patent publication US12570648B2, “6,7-dihydro-5H-pyrido[2,3-c]pyridazine derivatives and related compounds as Bcl-xL protein inhibitors and pro-apoptotic agents for treating cancer” (LES LABORATOIRES SERVIER, priority 2019, dated 2026)

Columns and labels:
MOLT-4 cells = assay: MOLT-4 cell viability using MTT assay; format: cell-based; conditions: Homo sapiens, MOLT-4, 48 h, 48 h exposure
Procedure: MTT colorimetric assay is based on the mitochondrial reduction of tetrazolium salt by living cells.
Cells were cultured at 37° C. in a humidified atmosphere containing 5% CO2. […] At the end of incubation time, 15 μL of MTT solution (5 mg/ml) were added per well and the cells were incubated for another 4 h. […] IC50s were calculated using standard four-parametric curve fitting.

[1] = biological target: His-His-(EK)-hsBCLXL(2-197)[N197C] (Homo sapiens (Human), UniProt Q07817, N197C); assay: Fluorescence quenching assay; format: binding; conditions: 1 nM Cy5-labelled protein, 400 nM PUMA peptide, 2 hours at 23° C.; KI determined from IC50
Source text: Fluorescence quenching assay measures the change in fluorescence intensity of C-terminally Cy5-labelled BCL-xL protein, His-His-(EK)-hsBCLXL(2-197)[N197C] (UniProtKB®
which is linked in C-terminal region to the amino acid X which corresponds to a cysteine labelled on the sulfur with Sulfo-Cyanine5 from Lumiprobe GmbH catalogue number 13380, upon binding of a C-terminally labelled peptide derived from PUMA (UniProtKB® primary accession number Q9BXH1) having an aminoacid sequence (SEQ ID:04): [[…]] which is linked in C-terminal region to the amino acid X′ where X′ is cysteine labelled on the sulfur with TQ5WS from AAT Bioquest catalogue number 2079.
The addition of a compound which binds competitively to the same site as the peptide will result in an increase in the fluorescence intensity of the protein due to displacement of the fluorescence quencher.
An 11-point serial dilution of each compound was prepared in DMSO, the final buffer conditions were 10 mM 4-(2-hydroxyethyl)-1-piperazineethanesulfonic acid [HEPES], 150 mM NaCl, 0.05% Tween 20, pH 7.4 and 5% DMSO. The final protein concentration in the assay was 1 nM with the peptide present at 400 nM. The experiments were incubated for 2 hours at 23° C. before fluorescence intensity was measured on a Biotek SynergyNeo plate reader (Excitation 620 nm, emission 680 nm). […] The K1 values were determined from the IC50 values according to Cer et al, Nucleic Acids Res, 2009, Jul. 1; 37 (WebServer issue): W441-W445.

Chain of His-His-(EK)-hsBCLXL(2-197)[N197C] (Q07817 2-197 N197C): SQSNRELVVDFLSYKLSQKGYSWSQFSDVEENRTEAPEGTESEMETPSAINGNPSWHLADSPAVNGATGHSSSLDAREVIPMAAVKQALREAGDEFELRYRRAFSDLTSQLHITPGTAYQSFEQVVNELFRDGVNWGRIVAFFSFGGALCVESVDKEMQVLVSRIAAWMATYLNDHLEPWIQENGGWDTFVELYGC

Row | Structure (SMILES) | IC50 (MOLT-4 cells) [pM] | Ki [1] [pM]
1 | Cc1c(Nc2nc3ccccc3s2)nnc2c1CCCN2c1ccc(-c2cnn(CC34CC5(C)CC(C)(C3)CC(OCCN3CCCC3)(C5)C4)c2C)c(C(=O)O)n1 [Example 127, 6-[3-(1,3-benzothiazol-2-ylamino)-4-methyl-6,7-dihydro-5H-pyrido[2,3-c]pyridazin-8-yl]-3-[1-[[3,5-dimethyl-7-(2-pyrrolidin-1-ylethoxy)-1-adamantyl]methyl]-5-methyl-pyrazol-4-yl]pyridine-2-carboxylic acid] | 137 | 2.1
2 | Cc1c(Nc2nc3ccccc3s2)nnc2c1CCCN2c1ccc(-c2cnn(CC34CC5(C)CC(C)(C3)CC(OCCN3CCN(C)CC3)(C5)C4)c2C)c(C(=O)O)n1 [Example 128, 6-[3-(1,3-benzothiazol-2-ylamino)-4-methyl-6,7-dihydro-5H-pyrido[2,3-c]pyridazin-8-yl]-3-[1-[[3,5-dimethyl-7-[2-(4-methylpiperazin-1-yl)ethoxy]-1-adamantyl]methyl]-5-methyl-pyrazol-4-yl]pyridine-2-carboxylic acid] | 284 | 1.8
3 | Cc1c(Nc2nc3ccccc3s2)nnc2c1CCCN2c1nc(C(=O)O)c(CCCOc2ccc(C#CCNCC[C@H](O)CO)cc2F)s1 [Example 129, 2-[3-(1,3-benzothiazol-2-ylamino)-4-methyl-6,7-dihydro-5H-pyrido[2,3-c]pyridazin-8-yl]-5-[3-[4-[3-[[(3S)-3,4-dihydroxybutyl]amino]prop-1-ynyl]-2-fluoro-phenoxy]propyl]thiazole-4-carboxylic acid] | 3110 | 4.7
4 | Cc1c(Nc2nc3ccccc3s2)nnc2c1CCCN2c1ccc(-c2cnn(CC34CC5(C)CC(C)(C3)CC(OCCN(C)CC[C@@H](O)CO)(C5)C4)c2C)c(C(=O)O)n1 [Example 130, 6-[3-(1,3-benzothiazol-2-ylamino)-4-methyl-6,7-dihydro-5H-pyrido[2,3-c]pyridazin-8-yl]-3-[1-[[3-[2-[[(3R)-3,4-dihydroxybutyl]-methyl-amino]ethoxy]-5,7-dimethyl-1-adamantyl]methyl]-5-methyl-pyrazol-4-yl]pyridine-2-carboxylic acid] | 1940 | 2.3
5 | Cc1c(Nc2nc3ccccc3s2)nnc2c1CCCN2c1nc(C(=O)O)c(CCCOc2ccc(C#CCNCC[C@@H](O)CO)cc2F)s1 [Example 131, 2-[3-(1,3-benzothiazol-2-ylamino)-4-methyl-6,7-dihydro-5H-pyrido[2,3-c]pyridazin-8-yl]-5-[3-[4-[3-[[(3R)-3,4-dihydroxybutyl]amino]prop-1-ynyl]-2-fluoro-phenoxy]propyl]thiazole-4-carboxylic acid] | 275 | 4.5
6 | Cc1c(Nc2nc3ccccc3s2)nnc2c1CCCN2c1ccc(-c2cnn(CC34CC5(C)CC(C)(C3)CC(OCCNCCCCO)(C5)C4)c2C)c(C(=O)O)n1 [Example 132, 6-[3-(1,3-benzothiazol-2-ylamino)-4-methyl-6,7-dihydro-5H-pyrido[2,3-c]pyridazin-8-yl]-3-[1-[[3-[2-(4-hydroxybutylamino)ethoxy]-5,7-dimethyl-1-adamantyl]methyl]-5-methyl-pyrazol-4-yl]pyridine-2-carboxylic acid] | 1320 | 2
7 | Cc1c(Nc2nc3ccccc3s2)nnc2c1CCCN2c1ccc(-c2cnn(CC34CC5(C)CC(C)(C3)CC(OCCNCC(CO)CO)(C5)C4)c2C)c(C(=O)O)n1 [Example 133, 6-[3-(1,3-benzothiazol-2-ylamino)-4-methyl-6,7-dihydro-5H-pyrido[2,3-c]pyridazin-8-yl]-3-[1-[[3-[2-[[3-hydroxy-2-(hydroxymethyl)propyl]amino]ethoxy]-5,7-dimethyl-1-adamantyl]methyl]-5-methyl-pyrazol-4-yl]pyridine-2-carboxylic acid] | 1680 | 2.1
8 | Cc1c(Nc2nc3ccccc3s2)nnc2c1CCCN2c1ccc(-c2cnn(CC34CC5(C)CC(C)(C3)CC(OCCN(CCO)CCO)(C5)C4)c2C)c(C(=O)O)n1 [Example 134, 6-[3-(1,3-benzothiazol-2-ylamino)-4-methyl-6,7-dihydro-5H-pyrido[2,3-c]pyridazin-8-yl]-3-[1-[[3-[2-[bis(2-hydroxyethyl)amino]ethoxy]-5,7-dimethyl-1-adamantyl]methyl]-5-methyl-pyrazol-4-yl]pyridine-2-carboxylic acid] | 1570 | 2.8
9 | Cc1c(Nc2nc3ccccc3s2)nnc2c1CCCN2c1ccc(-c2cnn(CC34CC5(C)CC(C)(C3)CC(OCCNC(CO)CO)(C5)C4)c2C)c(C(=O)O)n1 [Example 135, 6-[3-(1,3-benzothiazol-2-ylamino)-4-methyl-6,7-dihydro-5H-pyrido[2,3-c]pyridazin-8-yl]-3-[1-[[3-[2-[[2-hydroxy-1-(hydroxymethyl)ethyl]amino]ethoxy]-5,7-dimethyl-1-adamantyl]methyl]-5-methyl-pyrazol-4-yl]pyridine-2-carboxylic acid] | 3050 | 1.8
10 | Cc1c(Nc2nc3ccccc3s2)nnc2c1CCCN2c1ccc(-c2cnn(CC34CC5(C)CC(C)(C3)CC(OCCNCCOCCO)(C5)C4)c2C)c(C(=O)O)n1 [Example 136, 6-[3-(1,3-benzothiazol-2-ylamino)-4-methyl-6,7-dihydro-5H-pyrido[2,3-c]pyridazin-8-yl]-3-[1-[[3-[2-[2-(2-hydroxyethoxy)ethylamino]ethoxy]-5,7-dimethyl-1-adamantyl]methyl]-5-methyl-pyrazol-4-yl]pyridine-2-carboxylic acid] | 1250 | 1.4
11 | CC(=O)N(C)CC#Cc1ccc(OCCCc2sc(N3CCCc4c3nnc(Nc3nc5ccccc5s3)c4C)nc2C(=O)O)c(F)c1 [Example 139, 5-[3-[4-[3-[acetyl(methyl)amino]prop-1-ynyl]-2-fluoro-phenoxy]propyl]-2-[3-(1,3-benzothiazol-2-ylamino)-4-methyl-6,7-dihydro-5H-pyrido[2,3-c]pyridazin-8-yl]thiazole-4-carboxylic acid] | 995 | 20
12 | Cc1c(Nc2nc3ccccc3s2)nnc2c1CCCN2c1ccc(-c2cnn(CC34CC5(C)CC(C)(C3)CC(OCCN(CCCCO)CCCCO)(C5)C4)c2C)c(C(=O)O)n1 [Example 140, 6-[3-(1,3-benzothiazol-2-ylamino)-4-methyl-6,7-dihydro-5H-pyrido[2,3-c]pyridazin-8-yl]-3-[1-[[3-[2-[bis(4-hydroxybutyl)amino]ethoxy]-5,7-dimethyl-1-adamantyl]methyl]-5-methyl-pyrazol-4-yl]pyridine-2-carboxylic acid] | 2850 | 3.2
13 | Cc1c(Nc2nc3ccccc3s2)nnc2c1CCCN2c1nc(C(=O)O)c(CCCOc2ccc(C#CCN(C)C)cc2)s1 [Example 141, 2-[3-(1,3-benzothiazol-2-ylamino)-4-methyl-6,7-dihydro-5H-pyrido[2,3-c]pyridazin-8-yl]-5-[3-[4-[3-(dimethylamino)prop-1-ynyl]phenoxy]propyl]thiazole-4-carboxylic acid] | 98 | 8.5
14 | Cc1c(Nc2nc3ccccc3s2)nnc2c1CCCN2c1ccc(-c2cnn(CC34CC5(C)CC(C)(C3)CC(OCCN3CCOCC3)(C5)C4)c2C)c(C(=O)O)n1 [Example 142, 6-[3-(1,3-benzothiazol-2-ylamino)-4-methyl-6,7-dihydro-5H-pyrido[2,3-c]pyridazin-8-yl]-3-[1-[[3,5-dimethyl-7-(2-morpholinoethoxy)-1-adamantyl]methyl]-5-methyl-pyrazol-4-yl]pyridine-2-carboxylic acid] | 51.3 | 2.6
15 | Cc1c(Nc2nc3ccccc3s2)nnc2c1CCCN2c1ccc(-c2cnn(CC34CC5(C)CC(C)(C3)CC(OCCN3CCCCC3)(C5)C4)c2C)c(C(=O)O)n1 [Example 143, 6-[3-(1,3-benzothiazol-2-ylamino)-4-methyl-6,7-dihydro-5H-pyrido[2,3-c]pyridazin-8-yl]-3-[1-[[3,5-dimethyl-7-[2-(1-piperidyl)ethoxy]-1-adamantyl]methyl]-5-methyl-pyrazol-4-yl]pyridine-2-carboxylic acid] | 54.6 | 1.4
16 | Cc1c(Nc2nc3ccccc3s2)nnc2c1CCCN2c1ccc(-c2cnn(CC34CC5(C)CC(C)(C3)CC(OCCN3CCNCC3)(C5)C4)c2C)c(C(=O)O)n1 [Example 144, 6-[3-(1,3-benzothiazol-2-ylamino)-4-methyl-6,7-dihydro-5H-pyrido[2,3-c]pyridazin-8-yl]-3-[1-[[3,5-dimethyl-7-(2-piperazin-1-ylethoxy)-1-adamantyl]methyl]-5-methyl-pyrazol-4-yl]pyridine-2-carboxylic acid] | 13200 | 1.4
